Laboratory results reported in paper PMC7441537 (Journal of medicinal chemistry, 2019).
≈ marks a conversion by molar mass, not a printed value.

Key:
[1] = cited from earlier work
[2] = system: RES056 (K103N+Y181C); details: read-out: EC50 RES056 (previously reported); cited from earlier work
[3] = Aqueous solubility measured by HPLC; assay type: physicochemical; details: aqueous solution, pH 2
[4] = system: mice; experiment: Subacute toxicity with HE staining of organs; details: 50 mg/kg, heart, liver, spleen, lungs, kidneys
[5] = system: HIV-1 strains carrying single NNRTI-resistant mutations; assay type: cell-based; details: EC50 mutant/EC50 WT
[6] = system: HIV-1 K103N; assay type: cell-based; details: MT-4 cells; CC50/EC50
[7] = system: NNRTI-resistant strain K103N+Y181C (RES056); details: MT-4 cells
[8] = system: HIV-1 L100I; assay type: cell-based; details: MT-4 cells; CC50/EC50
[9] = system: HIV-1 F227L+V106A; assay type: cell-based; details: MT-4 cells; CC50/EC50
[10] = system: HIV-1 Y181C; assay type: cell-based; details: MT-4 cells; CC50/EC50
[11] = system: HIV-1 E138K; assay type: cell-based; details: MT-4 cells; CC50/EC50
[12] = system: Kunming mice; experiment: Acute; assay type: in vivo; details: 800 mg/kg, 2 weeks, vs control group
[13] = system: HIV-1 Y188L; assay type: cell-based; details: MT-4 cells; CC50/EC50
[14] = system: WT HIV-1 (IIIB); details: MT-4 cells
[15] = in vitro; details: human

Cc1cc(C#N)cc(C)c1Oc1nc(NC2CCN(Cc3ccc(S(N)(=O)=O)cc3)CC2)nc2ccsc12 [compound 3]
aqueous solubility (previously reported) [1]: less than 1 μg/mL
EC50 [2]: 30.6 nM

Cc1cc(C#N)cc(C)c1Oc1nc(Nc2ccc(C#N)cc2)nc(N)c1Br [ETV, etravirine]
aqueous solubility (previously reported) [1]: less than 1 μg/mL
solubility [3]: 127 µg/mL (≈ 292 µM)
EC50 [2]: 17 nM
organ toxicity by HE staining [4]: alveolar interstitial thickening and alveolar hemorrhage (the blue arrow) in the lung and proximal convoluted tubule edema (the red circle) in the kidney

Cc1cc(C#N)cc(C)c1Oc1nc(NC2CCN(Cc3ccc(C(N)=O)cc3)CC2)nc2c1COC2 [13c2, 4-((4-((4-(4-Cyano-2,6-dimethylphenoxy)-5,7-dihydrofuro-[3,4-d]pyrimidin-2-yl)amino)piperidin-1-yl)methyl)benzamide]
resistance FC values range for single mutant strains [5]: 0.6–5.3
SI K103N [6]: > 277778
SI RES056 (CC50/EC50) [7]: >6039
SI L100I [8]: > 104167
SI F227L+V106A [9]: > 13158
SI Y181C [10]: > 56818
SI E138K [11]: > 35714
behavior, acute toxicity [12]: no significant behavior abnormalities
SI Y188L [13]: > 29762
SI IIIB (CC50/EC50) [14]: >156250

Cc1cc(C#N)cc(C)c1Oc1nc(NC2CCN(Cc3cccc(C(N)=O)c3)CC2)nc2c1SCCC2 [13f5, 3-((4-((4-(4-Cyano-2,6-dimethylphenoxy)-7,8-dihydro-6H-thiopyrano[3,2-d]pyrimidin-2-yl)amino)piperidin-1-yl)methyl)benzamide]
CC50 [15]: > 4590 nM

Cc1cc(C#N)cc(C)c1Oc1nc(NC2CCN(Cc3ccc(S(N)(=O)=O)cc3)CC2)nc2c1CCC2 [13d1, 4-((4-((4-(4-Cyano-2,6-dimethylphenoxy)-6,7-dihydro-5H-cyclopenta[d]pyrimidin-2-yl)amino)piperidin-1-yl)methyl)benzenesulfonamide]
SI K103N [6]: > 21186
SI RES056 (CC50/EC50) [7]: >9091
SI L100I [8]: > 39683
SI F227L+V106A [9]: > 6579
SI Y181C [10]: > 16447
SI E138K [11]: > 5543
SI Y188L [13]: > 16667
SI IIIB (CC50/EC50) [14]: >208333
